Peptide text beside a SMILES is read from it.
Experiments:
HIV-1 RNA = assay: Northern blot of HIV-1 RNA in infected H-9 cells; assay type: cell-based
Description: To study proviral DNA and viral RNA synthesis, DNA and RNA from HIV-1 infected H-9 cells cultured in the presence of a small peptide were prepared at various time points (0-48 h).
By Northern blot analysis, three RNA bands (9.2, 4.3, 2.0 kb) were detected 24-48 h after infection. The 9.2 kb RNA acts as both the genomic RNA and as the mRNA for the gag and pol genes. The 4.3 kb singly-spliced RNA represents at least the env gene, and the multiply-spliced 2 kb RNA encodes for the regulatory genes.

HIV-1 SF-2 virus = assay: electron microscopy of HIV-1 particles from infected HUT78 cells; assay type: cell-based; details: 1 μM or 10 μM added 3, 5 or 7 days post infection; cells fixed day 14
Description: In this set of experiments, HUT78 cells were infected with HIV-1 SF-2 virus at 300TCID50 for 1 hr at 37° C. Subsequently, the infected cells were washed and pelleted 3 times, as described in Example 2. Thereafter, the cells were resuspended in RPMI culture medium supplemented with 10% FBS, antibiotics (100 u/ml) and polybrene (3.2 μg/ml). GPG-NH2 was then added into the cell cultures 3, 5 or 7 days post infection at concentration of 1 μM or 10 μM. A control sample was administered 0.5μM Ritonavir (a protease inhibitor).
The cells were cultured until day 14, at which point, the cells were fixed in 2.5% glutaraldehyde by conventional means. The fixed cells were then postfixed in 1% OSO4 and were dehydrated, embedded with epoxy resins, and the blocks were allowed to polymerize. Epon sections of virus infected cells were made approximately 60-80 nm thin in order to accommodate the width of the nucleocapsid. The sections were mounted to grids stained with 1.0% uranyl acetate and were analyzed in a Zeiss CEM 902 microscope at an accelerating voltage of 80 kV. The microscope was equipped with a spectrometer to improve image quality and a liquid nitrogen cooling trap was used to reduce beam damage. The grids having sections of control and GPG-NH2 incubated cells were examined in several blind studies.

[1] = tested on: HIV-1 isolate p7261 (low AZT); assay: resistant HIV-1 isolates in PBMC, p24 ELISA; assay type: cell-based; details: GPG 100 μM, 14 days post infection
HIV-1Bru wild-type = assay: infectivity in MT-2 cells, p24 ELISA, wild-type; assay type: cell-based
Description: Accordingly, the ability of GPG-NH2 to inhibit the infectivity of wild-type and V3-loop deletion mutants (GPG domain) in MT-2 cells was determined. In these experiments, approximately 200,000 MT-2 cells were infected with HIV-1Bru wild-type and GPG-deleted mutants mp8 and mp10 at 25 TCID50 to test the inhibitory effect of GPG-NH2 The MT-2 cells were resuspended in 1 ml of RPMT 1640 medium supplemented with 10% (v/v) heat-inactivated fetal bovine serum (FBS, GIBCO), penicillin (100μ/ml), streptomycin (100μ/ml) and Polybrene (Sigma 2 μg/ml) with or without the presence of GPG-NH2 at concentration 20 of μM and 100 μM. Thereafter, viruses were added at 25 TCID50 in a volume of 20-30 μl. Cells were incubated with virus at 37° C. for 16 hr then loosely pelleted by centrifugation at 170×g for 7 minutes. The cells were then washed three times in RPMI medium without peptides at room temperature by cell sedimentation at 170×g for 7 minutes as above. After the final wash, the cells were resuspended in RPMI culture medium in 24-well plate (Costar corporation) then kept at 37° C. in 5% CO2 with humidity. Culture supernatants were collected when medium was changed at day 4, 7, 11 and 14 post infection. To monitor the replication of virus, HIV-1 p24 antigen protein in the supernatants from day 7 and 14 was assayed by a ELISA kit (Abbott Laboratories) which has a linear dose-response range from 20 pg to 640 pg of p24 per ml and the p24 amount can be determined with aid of the regression line.

HSV-1 = assay type: cell-based; details: concentrations up to 1 mM
human mononuclear cells = assay: in vitro proliferative response of human mononuclear cells; assay type: cell-based; details: 20 μM
Description: Next, the toxicity to normal human lymphomonocytic cells (PBMC) was examined. […] The effect of GPG-NH2 on in vitro proliferative response of human mononuclear cells was also tested.

HUT78 = assay: cytotoxicity, trypan-blue dye exclusion and cell counting; details: 40 mM, 3 days of culture
Description: (§1) The in vitro 50% cytotoxic concentrations (CC50) of various cell lines was also assessed. Accordingly, different concentrations of GPG-NH2, up to 40 mM, was supplemented into the medium culture of T-cell lines HUT78, H9, CEM-SS, MT-2 and (non) induced ACH-2, as well as, the macrophage derived cell lines […], THP-1 and (non) induced U-1 cells. After 3 days of incubation, the number of cells were counted.

Jurkat-tat III = assay: as above; details: 40 mM, 3 days of culture
Description: as §1

MT-2 = assay: as above; details: 40 mM, 3 days of culture
Description: as §1

CEM-SS = assay: cytotoxicity, cell counting; details: 40 mM, 3 days
Description: as §1

H9 = assay: cytotoxicity, cell counting; details: 40 mM, 3 days
Description: as §1

THP-1 = assay: cytotoxicity, cell counting; details: 40 mM, 3 days
Description: as §1

[2] = single intravenous dose toxicity in adult mice; assay type: in vivo; details: intravenous injection in the tail vein, up to 1 g per kilo bodyweight
Description: (§2) In this example, the results from several in vivo toxicology studies on small peptides administered in large doses to rodents are presented. In a first experiment, a large single dose of small peptide was delivered to mice and the toxic effects were analyzed. […] In a second experiment, several doses of varying amounts of a small peptide were delivered to mice for almost three weeks. Groups of mice (five mice in each group) were given intraperitoneal injections of GPG-NH2 (0.01, 0.1 and 1 g per kilo bodyweight and day, respectively) starting at an age of 6 days. Daily injections were continued for 18 days. […] In a similar experiment, a four week toxicology study of GPG-NH2 was performed by Scantox A/S in Denmark. GPG-NH2 was given orally to rats at doses up to 1 g per kilo bodyweight per day for twenty eight days.

[3] = four week oral toxicology study in rats; assay type: in vivo; details: orally up to 1 g per kilo bodyweight per day, twenty eight days
Description: as §2

Compound: NCC(=O)N1CCC[C@H]1C(=O)NCC(N)=O [GPG-NH2, glycyl-prolyl-glycine amide] (H-Gly-Pro-Gly-NH2)
- expression of HIV-1 RNAs (9.2, 4.3, 2.0 kb) (HIV-1 RNA; 20 μM, up to 48 h post infection): no inhibitory effect
- HIV-1 RNA (HIV-1 RNA; 200 μM and 2,000 μM, 48 h after infection): a reduction of HIV-1 RNA was noticed
- viral nucleocapsid formation, electron microscopy (HIV-1 SF-2 virus): interrupted proper viral nucleocapsid formation
- % reduction [1]: (100%)
- HIV-1 p24 [1]: <500 pg/mL
- p24 (HIV-1Bru wild-type; GPG 20 μM, Day 7, WT): 23900 pg/mL
- reduction (%) (HIV-1Bru wild-type; GPG 20 μM, Day 7, WT): 29%
- p24 (HIV-1Bru wild-type; GPG 20 μM, Day 14, WT): 223000 pg/mL
- reduction (%) (HIV-1Bru wild-type; GPG 20 μM, Day 14, WT): 38%
- p24 (HIV-1Bru wild-type; GPG 100 μM, Day 7, WT): 3390 pg/mL
- reduction (%) (HIV-1Bru wild-type; GPG 100 μM, Day 7, WT): 90%
- p24 (HIV-1Bru wild-type; GPG 100 μM, Day 14, WT): 181000 pg/mL
- reduction (%) (HIV-1Bru wild-type; GPG 100 μM, Day 14, WT): 49%
- HSV-1 replication (HSV-1): failed to reduce HSV-1 replication
- anti-proliferative properties on T cells (human mononuclear cells): marginal if any direct anti-proliferative properties
- function of accessory cells (monocytes and dendritic cells) (human mononuclear cells): did not affect the function of accessory cells
- inhibition of cell growth (HUT78): ~40%
- inhibition of cell growth (Jurkat-tat III): ~40%
- inhibition of cell growth (MT-2): ~40%
- decrease in cell number (CEM-SS): less than 20%
- decrease in cell number (H9): less than 20%
- decrease in cell number (THP-1): less than 20%
- toxic effects [2]: no apparent toxic effects
- signs of toxicity [3]: No signs of toxicity
